Assays:
PAI-1 = assay: Western blot of BAL fluid and lung homogenates of bleo-treated mice: PAI-1; type: in vivo, mouse; settings: 40 μg bleomycin intranasally, day 7; for PAI-1 expression in lung homogenates: 10 mM peptide i.p. by 0.1 ml osmotic pump after 24 h
Protocol: (§1) Mice were treated intranasally with 50 μl saline (SAL; control) or an equal volume of a 40 μg bleomycin solution (Bleo). After 24 h, 10 mM PP-1 (“Bleo+PP-1”) or control peptide (Bleo+CP-1) were given intraperitoneally using a 0.1 ml osmotic pump. Lungs were excised on day 7, bronchoalveolar lavage (BAL) fluid (“B”), lung homogenates (“H”) and membrane proteins (uPAR) were analyzed by Western blotting using antibodies specific for the murine proteins. (The same blot (“H”) was then stripped and analyzed for β-actin confirm equivalent loading of the lanes)
(§2) Mice were treated intranasally with 50 μl saline or an equal volume of a 40 μg bleomycin solution. After 24 h, 10 mM PP-1 or the same concentration of control peptide CP-1 were given intraperitoneally using a 0.1 ml osmotic pump. Lungs were excised on day 7.
Lung tissue was chopped into small pieces with fine scissors and rinsed 3× with PBS. The tissues were then homogenized in 1 ml of extraction buffer (25 mM Tris-HCl, pH 7.9. 0.5 mM EDTA and 0.1 mM PMSF) and the homogenate was centrifuged at 12,000 g for 15 min at 4° C. The supernatant was removed and referred to as the crude extract. Protein content was measured using a BioRad protein assay kit. Cytosolic proteins were separated by SDS-PAGE and transferred to a nitrocellulose membrane which was blocked with 1% BSA in a wash buffer for 1 h at room temperature followed by overnight incubation with antibodies specific for uPA, PAI-1 or p53 in the same buffer at 4° C. Protein was detected by enhanced chemiluminescence (ECL). Membranes were stripped and immunoblotted for β-actin.
Mice were treated intranasally with saline (controls) are indicated (SAL). Mice receiving an equal volume of a 40 μg bleomycin solution are indicated (Bleo). Mice given PP-1 are indicated (PP-1) and those given control peptide are indicated (CP-1). BAL fluid is indicated (B), and lung homogenates (H) and membrane proteins (uPAR). Blots were probed with antibodies specific for the relevant murine proteins. (The same blot (H) was later stripped and analyzed for β-actin confirm equivalent loading of the lanes)

uPA [1] = assay: Western blot of lungs of bleo-treated mice: uPA; type: in vivo, mouse; settings: 40 μg bleomycin intranasally, 10 mM peptide i.p. by 0.1 ml osmotic pump after 24 h, day 7
Protocol: as §1, §2
(§3) Lung tissue was chopped into small pieces with fine scissors and rinsed 3× with PBS. The tissues were then homogenized in 1 ml of extraction buffer (25 mM Tris-HCl, pH 7.9. 0.5 mM EDTA and 0.1 mM PMSF) and the homogenate was centrifuged at 12,000 g for 15 min at 4° C. […] Protein content was measured using a BioRad protein assay kit. […] Protein was detected by enhanced chemiluminescence (ECL). […]
(§4) Mice were treated intranasally with saline (controls) are indicated (SAL). […] (The same blot (H) was later stripped and analyzed for β-actin confirm equivalent loading of the lanes)

[2] = tested on: bleo-induced lung injury in the mouse; assay: Lung hydroxyproline (collagen deposition) after bleo-induced lung injury; type: in vivo; settings: for lung hydroxyproline levels: 50 μg Bleo intranasally, 10 mM peptide in 0.1 ml osmotic pump i.p. one day later, lungs after 21 days
Protocol: FIGS. 10A and 10B are graphs showing the effect of PP-1 on fibrosis following bleo-induced lung injury in the mouse. […] 24 h after bleo, 0.1 ml osmotic pump filled with 10 mM PP-1 (designated “Bleo+PP” in Figures) or CP1 control scrambled peptide (“Bleo+CP1”) were implanted intraperitoneally. Lungs were harvested after 21 days, homogenized and the homogenates were subjected to the analysis of hydroxyproline or desmosine levels.
Anesthetized mice received intranasal bleomycin HCl solution containing 40 μg/50μl in sterile saline solution. After 24 h, 7 days or 14 days 10 mM PP-1 (“Bleo+PP-1”) or control peptide (Bleo+CP-1) were given ip using a 0.1 ml osmotic pump. Mice were sacrificed and lungs excised 21 days later. Lung homogenates were analyzed for hydroxyproline. Results are expressed a % of control hydroxyproline concentration.
Anesthetized mice received intranasal bleomycin HCl solution containing 40 μg/50 μl in sterile saline solution. After day 7, 10 mM peptide PP-2 (“Bleo+PP-2”) or control peptide (“Bleo+CP-2) were given intraperitoneally using a 0.1 ml osmotic pump. Lungs were excised after 21 days, lungs were homogenized and the homogenates were analyzed for hydroxyproline. Results are expressed a % of control hydroxyproline concentration.
The hPro content of the whole mouse lungs tissues were measured using the technique of Woessner J F, 1961, Arch. Biochem. Biophys. 93:440-7). Lung tissue from each animal was homogenized in 1.0 ml of extraction buffer. One ml 12N HCl was added, and the samples were hydrolyzed at 110° C. for 24 h. After cooling, 5 μl of the samples were mixed with 5 μl of citrate-acetate buffer (5% citric acid, 1.2% glacial acetic acid, 7.25% sodium acetate and 3.4% sodium hydroxide) and 100 μl of chloramine-T solution (1.4% chloramine-T, 10% N-propanol, and 80% citrate acetate buffer) in 96 well plates. The mixture was incubated for 20 min at room temperature. A total of 100 μl of Ehrlich's solution (2.5 g p-dimethylaminobenzaldehyde added to 9.3 ml of n-propanol and 3.9 ml of 70% perchloric acid) was added to each well and the plates incubated at 65° C. for 18 min. The absorbance of each sample was measured at 550 nm. Standard curves were generated for each experiment using a known concentration of reagent hPro. Results were expressed as % changes in hPro content (with total hPro content of saline-treated control mouse lungs considered 100%).
Lungs were harvested after 21 days, homogenized and the homogenates were subjected to the analysis of hydroxyproline as above (FIG. 10A) or desmosine (FIG. 10B). The effect of PP-1 on fibrosis in bleo-induced mouse lung injury was evaluated. Mice were treated with saline or 50 μg Bleo intranasally were implanted one day later with, 0.1 ml osmotic pumps i.p. The pumps were filled with either 10 mM (2.92 mg/100 μl) PP-1 (“Bleo+PP-1”) or control scrambled peptide CP-1 (“Bleo+CP-1”).

uPAR = assay: IHC of lung tissue of bleo-treated mice: uPAR; type: in vivo, mouse; settings: bleomycin-treated mice, 48-72 h
Protocol: (§5) For immunohistochemical (IHC) analysis, lungs were inflated at constant pressure of 20 cm H2O, removed and fixed overnight in 2% paraformaldehyde in PBS. Tissue was dehydrated by passage through a standard alcohol series and was embedded in paraffin. 5 μm sections were deparaffinized with xylene followed by incubation with 100% and 95% alcohol. After 10 min of antigen retrieval, the slides were incubated with H2O2 for 30 min to quench endogenous peroxidase. Slides were incubated overnight with the respective antibodies in PBS containing 0.1% Tween 20 and further processed using Lab vision kit (Freemont Calif.).
(§6) An IHC study was conducted to analyze lung tissue for expression p53, uPA, uPAR, PAI-1 and cleaved caspase 3 (Table 2). […] These IHC observations were confirmed by Western blotting (see Example II and FIG. 5).

uPA [3] = assay: IHC of lung tissue of bleo-treated mice: uPA; type: in vivo, mouse; settings: bleomycin-treated mice, 48-72 h
Protocol: as §5, §6

p53 [4] = assay: IHC of lung tissue of bleo-treated mice: p53; type: in vivo, mouse; settings: bleomycin-treated mice, 24-72 h
Protocol: as §5, §6

Src kinase = settings: Beas2B cells, bleo 40 μg/ml, 24 h, Western blot
Protocol: Cell lysates were analyzed for activating tyrosine (Y418) phosphorylation and inhibitory tyrosine (Y529) phosphorylation by Western blotting using phospho-specific antibodies. The same membrane was stripped and analyzed for total Src (Src-2) kinase and β-actin expression by Western blotting using specific antibodies.

p53 [5] = assay: Western blot of lung homogenates of bleo-treated mice: p53; type: in vivo, mouse; settings: 40 μg bleomycin intranasally, 10 mM peptide i.p. by 0.1 ml osmotic pump after 24 h, day 7
Protocol: as §1, §2, §3, §4

Substance: DGIWKASFTTFTVTKYWFYR [PP-1, residues 82-101 of human Cav-1, the caveolin-1 scaffolding domain]
- PAI-1 expression in lung homogenates (PAI-1): inhibited the increased p53 and PAI-1 expression
- uPA levels in lung (uPA [1]): enhanced the suppressed uPA and uPAR levels
- lung hydroxyproline levels [2]: significantly reduced, to normal levels
- bleomycin-induced collagen deposition (hydroxyproline, % of control) ([2]; bleomycin 40 μg/50 μl intranasal, 10 mM peptide i.p. osmotic pump after 24 h, 7 days or 14 days, lungs 21 days): significantly inhibited bleomycin-induced collagen deposition and lung fibrosis
- uPAR levels in lung tissue (IHC) (uPAR): reversed this suppression
- uPA levels in lung tissue (IHC) (uPA [3]): reversed this suppression
- p53 expression in lung tissue (IHC) (p53 [4]): blocked bleomycin induced p53 expression
- Src kinase activation (Y418 / Y529 phosphorylation) (Src kinase): inhibited bleo-induced activation of Src Y418 through phosphorylation of Src Y529
- p53 expression in lung homogenates (p53 [5]): inhibited the increased p53 and PAI-1 expression

Substance: Bleomycin
- PAI-1 expression in lung homogenates (PAI-1): increased
- PAI-1 in BAL fluid (PAI-1): increased
- uPA levels in lung (uPA [1]): suppression
- lung hydroxyproline levels [2]: significant increase in lung hydroxyproline or desmosine levels
- uPAR levels in lung tissue (IHC) (uPAR): uPA and uPAR levels fell between 48-72 h of bleomycin exposure
- uPA levels in lung tissue (IHC) (uPA [3]): uPA and uPAR levels fell between 48-72 h of bleomycin exposure
- p53 expression in lung tissue (IHC) (p53 [4]): induced p53 expression beginning at 48 h and increasing up to 72 h
- Src kinase activation (Y418 / Y529 phosphorylation) (Src kinase): Src kinase activation through phosphorylation of Src Y418
- p53 expression in lung homogenates (p53 [5]): increased

Reference: patent publication US8697840B2, “Peptide inhibition of lung epithelial apoptosis and pulmonary fibrosis” (Board of Regents, The University of Texas System, priority 2008, dated 2014)
